Results on one substance are retold here after publication PMC9555642 (PLoS ONE, 2022).

The target of one assay is T1, HDAC4 (Homo sapiens, UniProt P56524).
T1 construct: purchased Eurofins Pharma Discovery Services 2493
The assay can be described thus: HDAC enzymatic activity (Eurofins). Type of assay: biochemical. The following applies: Class IIA; ACY-1083 mean of two separate measurements, Ricolinostat and Tubastatin A one measurement.

The test system of assay [1] is healthy HBEC at ALI cultures. The assay can be described thus: Ciliary beat frequency. The format is cell-based, human. The following applies: TNF-challenged healthy HBEC. How it is done: (§1) For cilia beating frequency (CBF) and cell velocity measurements, donor cells of primary healthy HBECs were amplified on rat tail collagen I coated flasks and seeded on 12-mm-diameter Transwell inserts.
CBF was quantified for the differentiated healthy HBECs treated with vehicle, TNF, and TNF + ACY-1083. The plates containing the pseudostratified epithelia were incubated at 37 °C with 5% CO2 in the 3i Marianis/Yokogawa Spinning-Disk Confocal microscope (Leica Microsystems, Sugar land, USA) as reported in our previous publications. High-speed time-lapse videos were taken at 32X air at 100 Hz with a total of 250 frames using a scientific Hamamatsu C11440-42U30 CMOS camera (Bridgewater, USA). Five areas were imaged per insert. A Matlab (R2020a) script (validated against SAVA) (previously described in [58] was used to determine average CBF per video, to generate a heat map indicating CBF.

The target of another assay is T2, cyclooxygenase 2 (COX2) (Homo sapiens, UniProt P35354).
T2 construct: purchased Eurofins Pharma Discovery Services
T2 sequence (P35354 18-604): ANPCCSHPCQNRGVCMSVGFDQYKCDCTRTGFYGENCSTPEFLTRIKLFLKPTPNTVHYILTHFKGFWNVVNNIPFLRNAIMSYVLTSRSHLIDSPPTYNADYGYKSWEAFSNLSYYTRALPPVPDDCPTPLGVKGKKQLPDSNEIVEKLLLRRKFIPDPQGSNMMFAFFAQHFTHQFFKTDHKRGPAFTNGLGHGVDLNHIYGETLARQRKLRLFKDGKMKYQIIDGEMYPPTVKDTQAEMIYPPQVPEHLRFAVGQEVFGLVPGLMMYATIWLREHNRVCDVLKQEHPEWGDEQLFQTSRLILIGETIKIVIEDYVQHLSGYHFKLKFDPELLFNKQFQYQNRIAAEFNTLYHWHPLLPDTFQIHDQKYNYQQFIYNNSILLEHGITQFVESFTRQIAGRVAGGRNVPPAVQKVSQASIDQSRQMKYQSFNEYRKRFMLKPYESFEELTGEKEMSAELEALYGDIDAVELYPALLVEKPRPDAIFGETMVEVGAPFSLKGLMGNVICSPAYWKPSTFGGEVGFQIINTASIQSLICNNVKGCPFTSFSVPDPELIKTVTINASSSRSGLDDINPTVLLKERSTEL
The assay can be described thus: Secondary pharmacology panel (Eurofins). Type of assay: biochemical.

For assay [2], the system named is healthy HBEC at ALI cultures. Briefly: TEER in healthy HBEC ALI cultures, TNF challenge. The format is cell-based, human. The following applies: TNF-challenged healthy HBEC, p = 0.0187.
Assay [3] in a line: Secondary pharmacology panel of >190 in vitro radioligand binding and enzyme assays. Particulars: hits: HDAC5, HDAC7, COX2 and DAT.
Method: (§2) Second pharmacology screening was performed at Eurofins Pharma Discovery Services in a panel of 190 in vitro radioligand binding and enzyme assays covering a diverse set of enzymes, receptors, ion channels, and transporters.
Assay [4] has as its system healthy HBEC at ALI cultures. Briefly: Cell velocity (Particle Image Velocimetry). The format is cell-based, human. The following applies: TNF-challenged healthy HBEC, brought down to unchallenged levels, 0.0411.
Source text: as §1
Cell migration was quantified by performing Particle Image Velocimetry (PIVlab) on Matlab using multi-pass cross-correlation analysis with decreasing interrogation window size on image pairs to obtain the spatial velocity field as described previously.

T1 sequence (P56524 whole entry): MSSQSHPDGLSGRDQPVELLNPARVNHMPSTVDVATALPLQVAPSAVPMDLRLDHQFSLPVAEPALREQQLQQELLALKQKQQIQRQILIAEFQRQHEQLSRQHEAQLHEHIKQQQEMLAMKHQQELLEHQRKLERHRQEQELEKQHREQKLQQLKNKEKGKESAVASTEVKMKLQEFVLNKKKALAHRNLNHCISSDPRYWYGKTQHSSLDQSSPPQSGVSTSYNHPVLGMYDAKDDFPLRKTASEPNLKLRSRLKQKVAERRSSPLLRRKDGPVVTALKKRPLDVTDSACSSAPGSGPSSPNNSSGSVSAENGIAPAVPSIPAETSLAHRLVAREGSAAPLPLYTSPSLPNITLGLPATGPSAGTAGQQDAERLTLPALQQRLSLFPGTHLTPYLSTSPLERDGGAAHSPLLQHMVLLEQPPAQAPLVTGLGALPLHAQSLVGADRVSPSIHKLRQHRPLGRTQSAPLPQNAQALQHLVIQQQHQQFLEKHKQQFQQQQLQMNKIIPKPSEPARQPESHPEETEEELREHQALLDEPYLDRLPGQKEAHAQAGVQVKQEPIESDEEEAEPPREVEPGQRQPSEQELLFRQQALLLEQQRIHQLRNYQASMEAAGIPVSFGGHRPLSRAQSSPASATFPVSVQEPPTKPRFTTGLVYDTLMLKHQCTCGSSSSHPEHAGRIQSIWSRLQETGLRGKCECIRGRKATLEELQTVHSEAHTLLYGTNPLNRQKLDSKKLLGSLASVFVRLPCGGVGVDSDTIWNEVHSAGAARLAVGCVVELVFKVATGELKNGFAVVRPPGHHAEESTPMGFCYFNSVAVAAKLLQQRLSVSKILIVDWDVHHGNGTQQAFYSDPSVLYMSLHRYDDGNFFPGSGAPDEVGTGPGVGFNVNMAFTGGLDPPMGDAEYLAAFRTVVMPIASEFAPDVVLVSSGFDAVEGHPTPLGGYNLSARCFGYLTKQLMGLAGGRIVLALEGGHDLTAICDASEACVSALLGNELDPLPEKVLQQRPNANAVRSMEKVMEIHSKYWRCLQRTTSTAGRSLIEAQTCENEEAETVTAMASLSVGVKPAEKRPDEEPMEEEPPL
Method for cyclooxygenase 2 (COX2): as §2

As to ACY-1083, the IC50 – broadly, the concentration needed to halve the response being measured – turned out to be 12.5 µM against HDAC4 and 6.48 µM against cyclooxygenase 2 (COX2). Moreover, in assay [1], the CBF entry is “no effect”. Also, the TEER entry in assay [2] is reported as “reversed this decrease”. In addition, the “hits below 10 μM in HDAC isoform panel and secondary pharmacology safety panels” value in assay [3] came to 4. In addition, the cellular velocity entry in assay [4] is given as “counteract this increase”.
